{"source": "patent US20070249677A1", "about": "“Treatment of Osteoarthritis and Dosing Regimen for Arzoxifene” (priority 2004, published 2007)", "key": {"[1]": {"tested_on": "postmenopausal women with osteopenia", "assay": "OA biomarkers on a subset of samples from the Phase 2 osteopenia study", "type": "in vivo, human", "details": "no selection for OA", "description": "A Phase 2, multicenter, randomized, double-blind, placebo- and raloxifene-controlled study of arzoxifene enrolled 219 postmenopausal women with osteopenia (defined as bone mineral density [BMD] t-score at the lumbar spine and/or femoral neck >−2.5 and ≦−1). The study assessed the effects of arzoxifene compared with raloxifene HCl (60 mg/day) and placebo on biochemical markers of bone metabolism, cardiovascular disease risk markers, and on overall safety.\nCTXII was not evaluated as the assay is validated for urine specimens, which were not available."}, "[2]": {"assay": "Half life of arzoxifene in human patients", "type": "in vivo"}, "[3]": {"assay": "Half life of arzoxifene in laboratory animals", "type": "in vivo"}, "[4]": {"tested_on": "Hartley albino guinea pigs (spontaneous cartilage degeneration / osteoarthritis)", "assay": "Guinea Pig Spontaneous Osteoarthritis Study", "type": "in vivo", "from_the_text": "Hartley albino guinea pigs undergo spontaneous cartilage degeneration, and they have been used as a convenient small animal model system to study osteoarthritis (OA) and have potential physiologic relevance to the OA that spontaneously develops in humans. Disease-related morphologic changes observed in the guinea pigs are similar to the histopathologic alternations in the joints of humans with OA. Other significant similarities between the OA in Hartley guinea pigs and that in humans are also known. Huebner, Collagenase 1 and Collagenase 3 Expression in a Guinea Pig Model of Osteoarthritis, 41 Arthritis Rheum. 877-890 no. 5(May 1998). The Hartley guinea pig spontaneous model can be used to study the effects of Arzoxifene on OA.\nHartley strain guinea pigs, approximately three month old males, are used for the study. (In one study, 5.5 month old males were used, as indicated by FIG. 8). The Hartley albino guinea pigs are provided ad lib access to food (Ca 1.1%, p 0.6%, Vitamin D 3400 IU/kg) and water. The guinea pigs are dosed subcutaneously with Arzoxifene at 0.03, 0.1, 0.3, and/or 0.5 mg/kg/d for about two to four months. The study generally includes 15 guinea pigs per treatment group, except for the baseline, which generally includes 10 guinea pigs. Urine and serum are to be collected at 0, 2, 4, 6, 12, and 16 weeks for biomarker evaluation. The right knee joints are harvested for histology and the left knee joint for surface osteoarthritis scoring.\nThe effects observed on OA lesion areas by quantitative image analyses are illustrated by the graph in FIG. 3. The Zones of the lesion in the knee joint are illustrated by FIG. 1. Osteoarthritis changes are further evaluated by histologically quantitative analyses on paraffin embedded sections. The severities of joint damage are assessed for the depth of chondrocyte lesion and loss of proteoglycan on a score 0-5 for increasing severity on each third of the cartilage surface (Animla molde of osteoarthritis, A. M. Bendele (J Musculoskel Neuron Interact 2001: 1: 363-376)). Osteophyte development also evaluated by measuring the size."}, "[5]": {"tested_on": "ovariectomized Sprague-Dawley rats", "assay": "Intermittent Dosing Analysis of Arzoxifene in Ovariectomized Rats (Prevention Model), femur QCT", "type": "in vivo, rat", "details": "Ovx rats, 1 mg/kg oral", "description": "Arzoxifene will be administered using several different dosing intervals for 5 weeks to 6 month-old rats, one week after ovariectomy.\nLive phase: A total of about 78 female Sprague-Dawley rats (Harlan Sprague Dawley Inc) are used for this study design. 72 of the rats are ovariectomized (Ovx) at 6 months of age and 6 rats are used as sham-ovariectomized controls. Rats were maintained on a 12 hour light/dark cycle at 22° C. with ad lib access to food (TD 89222 with 0.5% Ca and 0.4% P, Teklad, Madison, Wis.) and water. Sham and Ovx controls are orally administered a vehicle of 20% hydroxy propyl-β-cyclodextrin (Aldrich Chemical Co). Arzoxifene (1 mg/kg) treated rats are dosed daily, every other day (QOD), every third day (Q3D), weekly on Monday (QW), or twice a week on Monday and Friday (M/F), as indicated. Each group contains 6 animals/grp and the treatment duration is about 5 weeks.\nAnalyses: Intact femora are removed and cleaned of soft-tissue and preserved in 50% ethanol/saline at 4° C. Femora are centered with respect to the QCT gantry (Research M, Stratec). A coronal scout scan of the specimen is generated first in 2 Dimension (2D) and then femora are scanned to measure bone mineral density (BMD, mg/cc), bone mineral content (BMC, mg), and cross-sectional area (mm2)."}}}
{"smiles": "COc1ccc(-c2sc3cc(O)ccc3c2Oc2ccc(OCCN3CCCCC3)cc2)cc1", "note": "[arzoxifene]", "values": [{"measurement": "COMP biomarker difference between placebo and arzoxifene", "setting": "[1]", "result": "modest but significant biomarker differences"}, {"measurement": "human cartilage glycoprotein-39 (YKL-40) biomarker difference between placebo and arzoxifene", "setting": "[1]", "result": "modest but significant biomarker differences"}, {"measurement": "half life", "setting": "[2]", "result": "longer than one day"}, {"measurement": "half life", "setting": "[3]", "result": "consistent with a daily dosing regimen"}, {"measurement": "OA progression based on OA surface area and osteophyte development", "setting": "[4]; 0.5 mg/kg/d subcutaneous, one study (FIG. 8, 5.5 month old males)", "result": "did not have a statistical effect on OA progression"}, {"measurement": "effect on preventing or slowing the progression of OA", "setting": "[4]; Hartley guinea pigs, subcutaneous, about two to four months, OA lesion areas by image analysis (FIG. 3)", "result": "positive effect on preventing or slowing the progression of OA"}, {"measurement": "OA progress: OA surface area and osteophyte development", "setting": "[4]; lower doses tested (0.03, 0.1, 0.3 mg/kg/d subcutaneous), FIGS. 4-7", "result": "favorable effect on preventing or delaying the OA progress"}, {"measurement": "loss of BMD, distal femur metaphysis by QCT", "setting": "[5]; daily, about 5 weeks (FIG. 9)", "result": "prevented"}, {"measurement": "loss of BMD, distal femur metaphysis by QCT", "setting": "[5]; every other day (QOD), about 5 weeks (FIG. 9)", "result": "prevented"}, {"measurement": "loss of BMD, distal femur metaphysis by QCT", "setting": "[5]; every third day (Q3D), about 5 weeks (FIG. 9)", "result": "prevented"}, {"measurement": "loss of BMD, distal femur metaphysis by QCT", "setting": "[5]; twice a week Monday and Friday (M/F), about 5 weeks (FIG. 9)", "result": "prevented"}, {"measurement": "loss of BMD, distal femur metaphysis by QCT", "setting": "[5]; weekly on Monday (QW), about 5 weeks, QW BMD intermediate between Ovx and Sham and less than Sham (FIG. 9)", "result": "only partially efficacious"}]}
